From the NIST ThermoML archive (doi:10.1016/j.jct.2010.06.011)

Assay: xn = mol fraction of the nth substance listed
Conditions: Liquid, Vibrating tube method

COC(=O)OC [dimethyl carbonate] + CCCCCC
mass density [kg/m3]
Conditions	100 kPa	5000 kPa	10000 kPa	20000 kPa	30000 kPa	40000 kPa
293.15 K, x1 = 0.1	684.2	689.7	694.6	703.9	712.2	719.8
293.15 K, x1 = 0.2	712	717.6	722.6	732	740.4	748.1
293.15 K, x1 = 0.3	742.7	748.3	753.3	762.8	771.3	779.2
293.15 K, x1 = 0.4	776.5	782.1	787.2	796.7	805.3	813.2
293.15 K, x1 = 0.5	813.8	819.4	824.5	834	842.6	850.6
293.15 K, x1 = 0.6	855	860.5	865.5	875	883.6	891.5
293.15 K, x1 = 0.7	900.5	905.9	910.9	920.2	928.7	936.6
293.15 K, x1 = 0.8	951.6	956.8	961.6	970.7	978.9	986.8
293.15 K, x1 = 0.9	1008.5	1013.4	1018	1026.7	1034.6	1042.3
293.15 K, x1 = 0.95	1038.4	1043.2	1047.6	1056.1	1063.9	1071.5
293.15 K, x1 = 1	1069.8	1074.4	1078.6	1086.9	1094.5	1101.9
298.15 K, x1 = 0.1	679.5	685.1	690.3	699.8	708.4	716
298.15 K, x1 = 0.2	707	712.8	718	727.7	736.4	744.2
298.15 K, x1 = 0.3	737.5	743.3	748.6	758.3	767.2	775.1
298.15 K, x1 = 0.4	771.1	776.9	782.2	792	800.9	808.9
298.15 K, x1 = 0.5	808.2	814	819.3	829.1	838	846.1
298.15 K, x1 = 0.6	849.2	854.9	860.2	869.9	878.8	886.9
298.15 K, x1 = 0.7	894.5	900.2	905.3	914.9	923.7	931.7
298.15 K, x1 = 0.8	945.4	950.8	955.8	965.1	973.7	981.6
298.15 K, x1 = 0.9	1002.1	1007.3	1012	1020.8	1029.1	1036.9
298.15 K, x1 = 0.95	1032	1036.9	1041.5	1050.2	1058.2	1065.9
298.15 K, x1 = 1	1063.2	1068	1072.4	1080.8	1088.7	1096.2
303.15 K, x1 = 0.1	674.6	680.3	685.7	–	–	–
303.15 K, x1 = 0.2	701.9	707.7	713.3	–	–	–
303.15 K, x1 = 0.3	732.2	738	743.6	–	–	–
303.15 K, x1 = 0.4	765.6	771.5	777.1	–	–	–
303.15 K, x1 = 0.5	802.5	808.3	813.9	–	–	–
303.15 K, x1 = 0.6	843.3	849.5	855	–	–	–
303.15 K, x1 = 0.7	888.5	894.5	899.9	–	–	–
303.15 K, x1 = 0.8	939.1	944.8	950	–	–	–
303.15 K, x1 = 0.9	995.7	1000.9	1005.9	–	–	–
303.15 K, x1 = 0.95	1025.4	1030.4	1035.2	–	–	–
303.15 K, x1 = 1	1056.5	1061.3	1066	–	–	–
